Results from US4122184A, “Benzimidazole insecticides” (priority 1977, dated 1978).

Legend:
Two-spotted Spider Mite = Two-spotted Spider Mite test; assay type: in vivo, Tetranychus urticae (Acarina); details: 48 h
Experimental: The procedure in this test is the same as that in the previous aphid test, except that about 100 two-spotted spider mites from a stock colony raised on squash plants are transferred to a cut squash cotyledon. The mortality is estimated 48 hours after spraying. The same rating scale is used.

House Fly [1] = assay: Housefly (Contact) Test; assay type: in vivo, Musca domestica (Diptera); details: 24 h
Experimental: Rearing cages containing four-day old adult house flies are chilled at 35°-40° F. for about 1 hour. One hundred flies are transferred from the rearing cage to each test cage using a small scoop. The caged flies are kept for 1-2 hours at 70°-80° F. The cages are sprayed in the same manner as described for the milkweed bug with 5 ml. of the test formulation. Two unsprayed cages are held as controls and two cages are sprayed with a 50 ppm DDT formulation as a reference standard. Mortality counts are made 24 hours after spraying. […] The same rating scale is employed as heretofore.

Oriental Cockroach = assay: Oriental Roach Test; assay type: in vivo, Blatta orientalis (Orthoptera); details: 24 h
Experimental: A rearing pan of late instar (3-4 months old) roaches is placed in a cold room for about 1 hour. Ten nymphs are taken from the pan and placed in each cage and the caged insects are kept at 70°-80° F. for 1 hour. The test cages are then sprayed in the manner indicated above in the milkweed bug test using 5 ml. of a formulation containing a specified amount of the insecticide. The test cages are held for 72 hours during which time the cockroaches are neither fed nor watered. Controls consist of 2 unsprayed cages, two cages sprayed with the formulation alone and 2 cages with a formulation containing 1000 ppm of heptachlor. Mortality counts are made 24 hours after spraying by shaking the cages lightly. All cockroaches remaining in the bottom are counted as dead.

Mexican Bean Beetle = Mexican Bean Beetle Test; assay type: in vivo, Epilachna varivestis (Coleoptera); details: 48 h
Experimental: Cuttings of four six-day old Bountiful snap bean plants containing two leaves with approximately 5 square inches of leaf surface, are placed in water. The leaves are sprayed to wetting with about 5-10 ml. of a formulation containing a pre-determined level of the test compound. Half of the formulation is sprayed on the top surface and half on the bottom surface of the leaf using a DeVilbiss atomizer at 10 psi held at a distance of about 18 inches from the leaf. After the leaves have dried, they are cut from the stem and placed separately in petri dishes. Ten third instar, nonmolting Mexican bean beetle larvae grown on Bountiful snap beans are placed on each leaf. Controls consist of two leaves sprayed with 5 ml. of a 500 ppm malathion formulation (reference standard), two leaves sprayed with the formulation without the active ingredient and two leaves are held as untreated controls. After 48 hours, a mortality count is made and the amount of feeding noted. Moribund larvae are counted as dead.

Southern Armyworm = Southern Armyworm Test; assay type: in vivo, Prodenia eridania (Lepidoptera); details: 500 ppm, 48 h
Experimental: Ten uniform Southern armyworm larvae about 1-1.5 cm. in length, grown on Henderson lima beans, are placed on excized bean leaves in petri dishes. The bean leaves are obtained and sprayed with the insecticide in the same way as are the snap bean leaves in the Mexican bean beetle test. The reference standards in this instance are leaves sprayed with 5 ml. 100 ppm DDT solution. Mortality counts are made 48 hours after spraying and again moribund larvae are counted as dead. Missing larvae which have probably been eaten are considered alive. The same rating scale is used as in the Mexican bean beetle test.

Milkweed Bug = Milkweed Bug Test; assay type: in vivo, Oncopeltis fasciatus (Hemiptera); details: 48 h
Experimental: Ten adult milkweed bugs are chilled and placed in a test cage. The cages containing the bugs are sprayed with 5 ml. of a test formulation containing a pre-determined amount of the insecticide, using a DeVilbiss atomizer at 10 psi held 33 inches from the top of the cage. After the cage has been allowed to dry, the bugs are fed and watered for 48 hours. A formulation containing 500 ppm of malathion is used as a reference standard and two unsprayed cages are kept as controls. Mortality counts are made 48 hours after spraying. Moribund adults are considered dead. The same rating scale is employed as before.

House Fly [2] = assay: Housefly (Stomach) Test; assay type: in vivo, Musca domestica (Diptera); details: 24 h
Experimental: Ten chilled house flies are taken from the rearing cage and placed in a covered petri dish. Sugar cubes treated with 0.2 ml. of a formulation containing a specified level of the insecticide are placed in the petri dish one hour after the flies have been removed from the chill room. Controls consist of sugar cubes treated with 0.2 ml. of deionized water and cubes treated with 0.2 ml. of a formulation containing 500 ppm of malathion. Mortality counts are made 24 hours later. The same rating scale is used as before.

Boll Weevil = Boll Weevil Test; assay type: in vivo, Anthonomus grandis (Coleoptera); details: 48 h
From the text: The procedure is identical to that employed for the Mexican bean beetle and the Southern armyworm, except that 10 adult boll weevils are placed on cotton leaves that have been dipped into formulations of the test compounds. The same rating scale is used.

Yellow Mealworm Larvae = assay: Field trial, topical application; assay type: in vivo; design: key: 0 = 0-10% mortality, 9 = 91-100% mortality (0-9 scale)
Experimental: (§1) The results are read at 24, 48, and 72 hours when applicable. The rating scale is 0 to 9 where 0 = 0-10 percent and 9 = 91-100 percent mortality.
In a variation of the above test, 1 microliter of a test solution containing a predetermined number of micrograms of benzimidazole was applied directly to larvae or adult insects.
(§2) Using the above methods, field trials were carried out against species of 5 orders of insects. The results, which are summarized in the following tables, give the average mortality for the particular insect with a given benzimidazole for each concentration employed. […] These tables contain all results obtained during the summer trials.

Squash Bug Adults = assay: Field trial, contact poison test; assay type: in vivo; design: key: 0-9 rating: 0 = 0-10% mortality, 9 = 91-100% mortality
From the text: (§3) Infested plants are placed in 6 oz. prescription bottles filled with water to keep them from wilting. Cellucotton is wrapped around the plant stem and squeezed into the bottle neck to prevent the insects from drowning.
(§4) A DeVilbiss Special Atomizer (5004) is used at 10 psi to spray the test plant with different concentrations of compounds. The atomizer is held at arm's length to prevent blowing the insects off the host plant. After treating, the bottles are placed on a table covered with brown wrapping paper to catch the dead insects as they drop from the plant. The plants are spaced so the leaves or plants are not touching one another.
as §1, §2

Melon Aphid = Melon Aphid Test; assay type: in vivo, Aphis gossypii (Hemiptera); details: 250 ppm, 24 h
From the text: Four blue hubbard squash seeds are planted per container in vermiculite and the containers watered from the bottom. After 6 days, the two weakest plants are cut off and one cotyledon and the primary leaves are removed from each of the two remaining plants. The remaining cotyledon is infested with 100 melon aphids from a stock colony by pinning the cotyledon against an aphid-infested squash cotyledon from the colony and allowing the aphids to transfer. After transfer, the colony leaf is removed. Forty-eight hours later, the infested leaves are sprayed to wetting with formulations containing graded amounts of the insecticide using a DeVilbiss atomizer at 10 psi held at 12-15 inches from the plant. Controls consist of two infested, unsprayed squash plants and two infested plants sprayed to wetting with a formulation containing 100 ppm malathion as a reference standard. The mortality is estimated 24 hours after spraying by observation using a 10 power dissecting microscope. The same rating scale is used as before.

[3] = tested on: Unidentified Green Leafhopper; assay: Field trial, stomach poison test; assay type: in vivo; design: key: mortality rating on a 0 to 9 scale
Experimental: (§5) Leaves from the infested plant are treated with different concentrations of the test compounds, either by spraying with a DeVilbiss Special Atomizer (5004) at 10 psi or by dipping the leaves in solutions containing the compound. The leaves are then allowed to air dry.
(§6) After the leaves have dryed, they are placed in plastic petri dishes (100 × 25 mm), then the insects are counted out into each dish, five or ten insects per dish depending on the number of insects available. There are one or two replicates and usually two or three rates with each compound. Mortality results are taken at 24, 48 and 72 hours. The rating scale is 0 to 9.
as §2

[4] = tested on: Tarnished Plant Bug Adults; assay: Field trial, stomach poison test; assay type: in vivo; design: key: mortality rating on a 0 to 9 scale
Experimental: as §5, §6, §2

[5] = tested on: Southern Corn Rootworm Adults; assay: Field trial, contact poison test; assay type: in vivo
From the text: as §3, §4, §1, §2

Meadow Spittlebug = assay: Field trial, stomach poison test; assay type: in vivo
Experimental: as §5, §6, §2

[6] = tested on: Southern Corn Rootworm Adults; assay: Field trial, stomach poison test; assay type: in vivo; design: key: mortality rating on a 0 to 9 scale
Experimental: as §5, §6, §2

## CC(COc1ccc(C(C)(C)C)cc1)OS(=O)OCCCl (stereo not drawn) [Aramite, reference compound]
Two-spotted Spider Mite; 50 ppm
  mortality rating: 7-9

## Clc1ccc(C(c2ccc(Cl)cc2)C(Cl)(Cl)Cl)cc1 [DDT, reference compound]
House Fly [1]; 50 ppm
  mortality rating: 6-8

## CCOC(=O)n1c(C(F)(F)F)nc2c([N+](=O)[O-])cc(C(F)(F)F)cc21 [G, ethyl 2,6-bis(trifluoromethyl)-4-nitro-1-benzimidazolecarboxylate]
Oriental Cockroach; 1000 ppm
  mortality rating: 5.5

## ClC1=C(Cl)C2(Cl)C3C(Cl)C=CC3C1(Cl)C2(Cl)Cl (stereo not drawn) [Heptachlor, reference compound]
Oriental Cockroach; 1000 ppm
  mortality rating: 8-9

## O=[N+]([O-])c1cc(C(F)F)cc2nc(C(F)(F)F)[nH]c12 [M, 2-trifluoromethyl-4-nitro-6-difluoromethylbenzimidazole]
House Fly [1]; 10 ppm
  mortality rating: 8.5
Mexican Bean Beetle; 50 ppm
  mortality rating: 1.5
Mexican Bean Beetle; 100 ppm
  mortality rating: 5.5
Mexican Bean Beetle; 500 ppm
  mortality rating: 7.5
Southern Armyworm
  mortality rating: .5
Milkweed Bug; 50 ppm
  mortality rating: .5
Milkweed Bug; 100 ppm
  mortality rating: 3.5
House Fly [2]; 100 ppm
  mortality rating: 5.5
Two-spotted Spider Mite; 100 ppm
  mortality rating: 6.5
Two-spotted Spider Mite; 250 ppm
  mortality rating: 8.5
Boll Weevil; 50 ppm
  mortality rating: 1.5
Boll Weevil; 250 ppm
  mortality rating: 8.5
Boll Weevil; 500 ppm
  mortality rating: 8.5
Boll Weevil; 1000 ppm
  mortality rating: 7.5
Oriental Cockroach; 500 ppm
  mortality rating: 1.5

## CCOC(=O)CC(SP(=S)(OC)OC)C(=O)OCC (stereo not drawn) [Malathion, reference compound]
Mexican Bean Beetle; 500 ppm
  mortality rating: 7- 8
Milkweed Bug; 500 ppm
  mortality rating: 7-8
House Fly [2]; 500 ppm
  mortality rating: 6-7
Boll Weevil; 500 ppm
  mortality rating: 7-8

## O=C(Oc1ccc([N+](=O)[O-])cc1)n1c(C(F)(F)F)nc2c([N+](=O)[O-])cc(C(F)(F)F)cc21 [N, p-nitrophenyl-4-nitro-2,6-bis(trifluoromethyl)-1-benzimidazolecarboxylate]
Yellow Mealworm Larvae; 0.03 μg/μl
  average mortality rating: 1
Yellow Mealworm Larvae; 0.07 μg/μl
  average mortality rating: 3
Yellow Mealworm Larvae; 0.15 μg/μl
  average mortality rating: 7
Squash Bug Adults; 125 ppm
  average mortality rating: 1
Squash Bug Adults; 250 ppm
  average mortality rating: 6
Squash Bug Adults; 500 ppm
  average mortality rating: 5
Squash Bug Adults; 750 ppm
  average mortality rating: 8
Melon Aphid
  mortality rating: 7.5
[3]; 10 ppm
  average mortality rating: 0 (0-10 percent)
[3]; 25 ppm
  average mortality rating: 1
[3]; 50 ppm
  average mortality rating: 3
[4]; 10 ppm
  average mortality rating: 3
[4]; 25 ppm
  average mortality rating: 3
[4]; 50 ppm
  average mortality rating: 3
[5]; 25 ppm
  average mortality rating: 0 (0-10 percent)
[5]; 50 ppm
  average mortality rating: 5
[5]; 100 ppm
  average mortality rating: 3
Two-spotted Spider Mite; 1 ppm
  mortality rating: 2.5
Two-spotted Spider Mite; 5 ppm
  mortality rating: 1.5
Two-spotted Spider Mite; 500 ppm
  mortality rating: 8.5
Meadow Spittlebug; 10 ppm
  average mortality rating: 1
Meadow Spittlebug; 25 ppm
  average mortality rating: 1
Meadow Spittlebug; 50 ppm
  average mortality rating: 0 (0-10 percent)
Boll Weevil; 10 ppm
  mortality rating: 1.5
Boll Weevil; 25 ppm
  mortality rating: 3.5
Oriental Cockroach; 500 ppm
  mortality rating: 4.5
Oriental Cockroach; 1000 ppm
  mortality rating: 5.5

## mixture of 7-nitro-1-piperidinothionocarbonyl-2,5-bis(trifluoromethyl)benzimidazole and 4-nitro-1-piperidinothionocarbonyl-2,6-bis(trifluoromethyl)benzimidazole
Yellow Mealworm Larvae; 0.03 μg/μl
  average mortality rating: 3
Yellow Mealworm Larvae; 0.07 μg/μl
  average mortality rating: 3
Yellow Mealworm Larvae; 0.15 μg/μl
  average mortality rating: 3
[6]; 25 ppm
  average mortality rating: 1
[6]; 50 ppm
  average mortality rating: 7
[6]; 100 ppm
  average mortality rating: 3
[5]; 25 ppm
  average mortality rating: 0 (0-10 percent)
[5]; 50 ppm
  average mortality rating: 9 (91-100 percent mortality)
[5]; 100 ppm
  average mortality rating: 9 (91-100 percent mortality)

## mixture of N-ethyl-4-nitro-2,6-bis(trifluoromethyl)thio-1-benzimidazolecarboxanilide and N-ethyl-nitro-2,5-bis(trifluoromethyl)thio-1-benzimidazolecarboxanilide
House Fly [1]; 10 ppm
  mortality rating: 6.5
House Fly [1]; 25 ppm
  mortality rating: 8.5
House Fly [1]; 50 ppm
  mortality rating: 8 (81-90)
House Fly [1]; 100 ppm
  mortality rating: 8 (81-90)
House Fly [1]; 250 ppm
  mortality rating: 9 (91-100)
House Fly [1]; 500 ppm
  mortality rating: 9 (91-100)
House Fly [1]; 1000 ppm
  mortality rating: 7 (71-80)
Mexican Bean Beetle; 10 ppm
  mortality rating: 1.5
Mexican Bean Beetle; 25 ppm
  mortality rating: 6 (61-70)
Mexican Bean Beetle; 50 ppm
  mortality rating: 5.5
Mexican Bean Beetle; 100 ppm
  mortality rating: 6.5
Mexican Bean Beetle; 250 ppm
  mortality rating: 9 (91-100)
Mexican Bean Beetle; 500 ppm
  mortality rating: 9 (91-100)
Mexican Bean Beetle; 1000 ppm
  mortality rating: 9 (91-100)
Milkweed Bug; 1000 ppm
  mortality rating: 1 (11-20)
House Fly [2]; 1000 ppm
  mortality rating: 1 (11-20)
Two-spotted Spider Mite; 1000 ppm
  mortality rating: 5 (51-60)
Boll Weevil; 10 ppm
  mortality rating: 0 (0-10)
Boll Weevil; 25 ppm
  mortality rating: 6.5
Boll Weevil; 50 ppm
  mortality rating: 7.5
Boll Weevil; 100 ppm
  mortality rating: 8 (81-90)
Boll Weevil; 250 ppm
  mortality rating: 8.5
Boll Weevil; 500 ppm
  mortality rating: 9 (91-100)
Boll Weevil; 1000 ppm
  mortality rating: 9 (91-100)
Oriental Cockroach; 1000 ppm
  mortality rating: 0 (0-10)
